US9145375B2, “Quinazolinone compounds” (PRANA BIOTECHNOLOGY LIMITED, priority 2008, dated 2015)
In brackets after ≈: the same amount, converted by molar mass. Like-named read-outs stand apart in the source and are kept apart here.

Tests used:
[1] = Equilibrium Solubility (pH 2-7); assay type: physicochemical; conditions: for solubility thermodynamic: aqueous buffer, thermodynamic from solid
[2] = Metabolism in hepatocytes (predicted EH), dog; assay type: in vitro ADME
[3] = test system: 6-OHDA lesion of the SNpc; assay: Parkinson's disease in vivo: 6-OHDA model; design: species or system mouse; conditions: 6-OHDA lesioned mice
Description: Parkinson's Disease In Vivo Technique: 6-OHDA Model
Preparation of the toxin 6-OHDA (1.65 mg/mL, Sigma Cat# H-4381):
6-OHDA toxin is dissolved in ascorbic acid solution (0.2 mg/mL in dH2O), store in dark on ice. To increase the speed of anaesthesia and reduce stress to the mouse, there is premedication with atropine (0.5 mg/kg) and xylazine (10 mg/kg) is injected subcutaneously via a 27 gauge needle).
To Prepare the Lesion Needle to Inject 6-OHDA:
PBS is sucked up into the line (ensure no air bubbles) with up to […] in a Hamilton syringe. Syringe is placed the in the Kd Scientific syringe pump and secured. Pump is turned the on and syringe is loaded into the pump. Pump volume is set at […] and the rate is set at 0.5 ml/min. The lesion needle is positioned so that the bevelled (eye) of the needle is at a 45° angle from the midline and tightened to secure the needle. Pump is run and checked for fluid coming out.
3-4% isoflurane is carried by oxygen to induce anaesthesia and 1-2% for maintenance of anaesthesia. Animal is placed in small induction chamber and subjected to a few minutes of 4% isoflurane in oxygen at a flow rate of approx 1 l/min. Mouse is then placed in stereotaxic frame. The anaesthetic tube is disconnected from induction box and isoflurane reduced to 2% conc and oxygen flow rate to approx […]. Tube is connected to the nose piece attached to stereotaxic frame so that anaesthetic gas can be constantly administered during surgery. LHS ear bar is screwed at approx 3 mm. RHS ear bar is screwed in until there is no sideways head movement (about 5 mm). Front incisors are placed over the mouthguard and put nose-guard on (3 mm below 0). Mouthguard is screwed into place and ensured the top of the mouse's head is level (re-check this once the animal's skull is exposed).
Using a scalpel (size 4, blade 22), the scalp is cut down the centreline of the mouse's head to expose the skull. Typically 10-15 mm. The surface of the skull is dried with a cotton bud. Drill hole is measured with a ruler 3 mm posterior from Bregma and between 1 and 1.5 mm laterally from the centre line. The skull is drilled into this position until the surface of the brain is exposed.
6-OHDA is sucked up to fill approximately 15 cm of the line and the syringe. Fluid is ensured to be coming out of needle. The bevelled of the needle is aligned over the centreline where Bregma crosses, viewed by Motik dissecting microscope. The needle is ensured to be a few mm above the skull before positioning. Frame is moved 2.9 mm in a posterior direction and 1.1 mm (11 small notches) laterally to the right (for RHS injections) from the starting coordinates at Bregma. Needle is moved down until the tip of the needle just touches the surface of the brain.
Needle is lowered to the required depth of 4.6 mm and brain is allowed to settle for 2 min.
[…] of toxin is injected into the RHS SNpc, taking 4 min. 2 min is allowed to ensure the toxin disperses. Needle is withdrawn and antiseptic applied to the wound, with suture or superglue to close.
Mouse is wrapped in a piece of tissue and placed in a warm recovery box (on a heat pad) with water bottles (50 ml tubes) warmed to 50 C. Panadol® syrup is added to mouse's water bottle.
Rotation is recorded by the Computer based Rotacount system—(Columbus Instruments, Columbus, Ohio, USA). The system comprised of 8 bowls with sensors connected to a computer which measures incremental turns (90 degrees and full turns 360 degrees) either clockwise or counter clockwise. The sensors are positioned above the centre of each bowl about 30 cm above each. Tubing and a thin empty plastic pipette are attached so that the sensor is now extended to with a few cm of the base of the bowl.
Mice are placed individually into the eight bowls. Mice are secured to the pipettes via a cable tie and tape. […]

CYP3A4 = CYP3A4 (Homo sapiens, UniProt P08684); assay: CYP450 inhibition, specific substrate approach in human liver microsomes: CYP3A4; assay type: in vitro ADME; design: using a specific substrate approach in human liver microsomes; from tissue; host or cells: human liver microsomes
Description: CYP450 Isoform Inhibition Using a Specific Substrate Approach
The present study is a “Tier 2” screen to assess potential enzyme inhibition at a test compound concentration of 20 μM using a specific substrate approach in human liver microsomes.
The substrate specific enzyme inhibition study relies on the formation of a metabolite that is mediated by a specific CYP450 isoform using human liver microsomes. In the current study, the following reactions were monitored to assess interactions with specific CYP450 isoforms. A known inhibitor of each isoform was included in each assay as a positive control. The following IC50 values have been reported in the literature using equivalent assay conditions for each CYP450 isoform:
The reaction was initiated by the addition of an NADPH-regenerating system and was quenched by the addition of acetonitrile prior to determining the concentration (and apparent rate of formation) of the specific metabolite by LC/MS.
The IC50 was deemed to be the concentration at which there was a 50% reduction in the amount of metabolite formed, relative to the maximal extent of formation.

[4] = midazolam, read-out: CYP3A4-Midazolam IC50
[5] = testosterone, read-out: CYP3A4-Testosterone IC50

CYP3A4, sequence (P08684 2-503): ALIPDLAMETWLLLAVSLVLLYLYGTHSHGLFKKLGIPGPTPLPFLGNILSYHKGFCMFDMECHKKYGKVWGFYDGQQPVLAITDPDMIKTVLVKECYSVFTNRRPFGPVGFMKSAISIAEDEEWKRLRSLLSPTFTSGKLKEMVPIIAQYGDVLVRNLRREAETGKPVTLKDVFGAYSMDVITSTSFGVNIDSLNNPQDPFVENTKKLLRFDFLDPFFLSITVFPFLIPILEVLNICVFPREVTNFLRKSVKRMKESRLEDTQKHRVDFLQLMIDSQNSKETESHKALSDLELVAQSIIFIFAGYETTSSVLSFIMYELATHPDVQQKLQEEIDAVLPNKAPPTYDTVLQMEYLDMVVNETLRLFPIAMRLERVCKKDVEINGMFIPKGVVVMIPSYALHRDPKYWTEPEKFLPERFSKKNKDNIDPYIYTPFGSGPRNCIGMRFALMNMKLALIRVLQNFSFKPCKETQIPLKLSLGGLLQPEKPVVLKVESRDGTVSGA

Compound	pH dependence of equilibrium solubility [1]	solubility thermodynamic [1] [µg/mL]	Metabolism (Predicted EH), Hepatocytes: Dog [2]	Behaviour (Rotation) % SSV ([3]; SSV = 0%, dose not given) [%]	Behaviour (Rotation) total turns/h ± SD ([3]; dose not given)	SN cell counts % of SSV (SSV = 0%) ([3]; dose not given) [%]	SN cell counts (cells ± SD) ([3]; dose not given)	IC50 (CYP3A4; [4]) [µM]	IC50 (CYP3A4; [5]) [µM]	further results
CNCc1nc2c(O)c(Cl)cc(Cl)c2c(=O)n1C [Compound F4161]	pH dependent	196 to 746 (≈ 0.68 to 2.59 mM)	Dog = 0.56							
CN(C)Cc1nc2c(O)c(Cl)cc(Cl)c2c(=O)n1CC1CC1 [Compound F4267]	pH dependent	393 to 1700 (≈ 1.15 to 4.98 mM)	Dog = 0.39							Behaviour (Rotation) % SSV ([3]; 5 mg kg): 7.01%; Behaviour (Rotation) total turns/h ± SD ([3]; 5 mg kg): (240.89 ± 171.99) turns/h; SN cell counts % of SSV (SSV = 0%) ([3]; 5 mg kg): 55.79%; SN cell counts (cells ± SD) ([3]; 5 mg kg): (2992.00 ± 883.84) cells; Behaviour (Rotation) % SSV ([3]; 15 mg kg): −23.39%; Behaviour (Rotation) total turns/h ± SD ([3]; 15 mg kg): (319.67 ± 171.05) turns/h; SN cell counts % of SSV (SSV = 0%) ([3]; 15 mg kg): 77.86%; SN cell counts (cells ± SD) ([3]; 15 mg kg): (3415.96 ± 498.05) cells; Behaviour (Rotation) % SSV ([3]; 30 mg kg): 36.33%; Behaviour (Rotation) total turns/h ± SD ([3]; 30 mg kg): (164.93 ± 110.90) turns/h; SN cell counts % of SSV (SSV = 0%) ([3]; 30 mg kg): 110.44%; SN cell counts (cells ± SD) ([3]; 30 mg kg): (4041.70 ± 799.55) cells; IC50 (CYP3A4; substrate not stated, read-out: CYP3A4 IC50): > 30 µM
CCn1c(CN(C)C)nc2c(O)c(Cl)cc(Cl)c2c1=O.Cl [Compound F4268]	not pH dependent	3810 to 10200	Dog = 0.49	56.04	(114.56 ± 71.86) turns/h	93.96	(3725.04 ± 842.65) cells	~20	> 20	
CN(C)Cc1nc2c(O)c(Cl)cc(Cl)c2c(=O)n1C [Compound F4269, 5,7-Dichloro-2-(dimethylamino)methyl-8-hydroxy-3-methylquinazolin-4(3H)-one]	pH dependent	166 to 2670 (≈ 0.549 to 8.84 mM)	Dog = 0.54	48.85	(132.50 ± 81.93) turns/h	68.91	(3243.93 ± 724.98) cells	> 30	> 30	
CCN(CC)Cc1nc2c(O)c(Cl)cc(Cl)c2c(=O)n1CC1CC1 [Compound F4385]	pH dependent	683 to 1660 (≈ 1.84 to 4.49 mM)	Dog = 0.37	49.98	(129.57 ± 16.26) turns/h	56.81	(3011.56 ± 502.27) cells	21.5	> 30	
C#CCN(C)Cc1nc2c(O)c(Cl)cc(Cl)c2c(=O)n1CC1CC1 [Compound F4387]				24.51	(195.57 ± 114.48) turns/h	46.90	(2821.24 ± 940.22) cells			
CCNCc1nc2c(O)c(Cl)cc(Cl)c2c(=O)n1CC [Compound F4495]	not pH dependent	2230 to 4730 (≈ 7.04 to 14.9 mM)	Dog = 0.56	18.06	(212.29 ± 101.41) turns/h	57.22	(3019.56 ± 318.79) cells	> 30	> 30	
Br.CCNCc1nc2c(O)c(Cl)cc(Cl)c2c(=O)n1C [Compound F4496]	not pH dependent	224 to 1500	Dog = 0.66	36.62	(164.20 ± 100.40) turns/h	95.68	(3758.11 ± 510.98) cells	4.4	8.6	
